Square brackets hold non-standard residues; d marks the D form. Peptide text beside a SMILES is read from it. * marks the point of attachment. Phe(4-guanidino) = N=C(N)Nc1ccc(C[C@H](N)C(=O)O)cc1; Bip = N[C@@H](Cc1ccc(-c2ccccc2)cc1)C(=O)O; Phe(4-CN) = N#Cc1ccc(C[C@H](N)C(=O)O)cc1; Phe(4-Cl) = N[C@@H](Cc1ccc(Cl)cc1)C(=O)O; Phe(4-Me) = Cc1ccc(C[C@H](N)C(=O)O)cc1; NMeR = CN[C@@H](CCCNC(=N)N)C(=O)O; hPhe = N[C@@H](CCc1ccccc1)C(=O)O; NMeK = CN[C@@H](CCCCN)C(=O)O; NMeNle = CCCC[C@H](NC)C(=O)O; Phg = N[C@H](C(=O)O)c1ccccc1; dNle = CCCC[C@@H](N)C(=O)O; Nle = CCCC[C@H](N)C(=O)O; Bz = O=C(c1ccccc1)*

Chain of Genome polyprotein (P29990 1346-1475 limits assumed): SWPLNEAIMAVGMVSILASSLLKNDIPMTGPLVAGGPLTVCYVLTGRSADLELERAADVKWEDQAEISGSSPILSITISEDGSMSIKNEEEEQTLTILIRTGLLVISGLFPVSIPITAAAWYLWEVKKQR
Chain of Genome polyprotein (P29990 1476-2093 limits assumed): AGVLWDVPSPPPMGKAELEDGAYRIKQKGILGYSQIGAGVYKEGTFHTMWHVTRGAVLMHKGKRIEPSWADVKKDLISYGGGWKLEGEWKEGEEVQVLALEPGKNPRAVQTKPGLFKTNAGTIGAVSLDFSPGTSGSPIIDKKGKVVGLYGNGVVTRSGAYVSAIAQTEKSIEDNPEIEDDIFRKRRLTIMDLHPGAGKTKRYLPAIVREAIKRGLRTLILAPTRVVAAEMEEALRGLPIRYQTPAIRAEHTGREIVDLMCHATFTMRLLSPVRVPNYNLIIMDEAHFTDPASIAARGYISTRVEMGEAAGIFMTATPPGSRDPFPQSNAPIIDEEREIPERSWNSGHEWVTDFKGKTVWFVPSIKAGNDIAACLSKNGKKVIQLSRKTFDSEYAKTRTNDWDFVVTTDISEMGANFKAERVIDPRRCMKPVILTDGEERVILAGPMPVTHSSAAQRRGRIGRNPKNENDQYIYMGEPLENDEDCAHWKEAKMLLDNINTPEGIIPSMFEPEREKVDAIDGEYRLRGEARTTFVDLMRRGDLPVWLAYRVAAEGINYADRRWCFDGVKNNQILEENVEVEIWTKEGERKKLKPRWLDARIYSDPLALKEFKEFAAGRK

The assay has as its target Genome polyprotein (dengue virus type 2, UniProt P29990). The assay can be described thus: Inhibitory activity against dengue 2 NS3 protease fused via a linker to region of NS2B.
Take `NCCCC[C@H](NC(=O)[C@H](Cc1ccccc1)NC(=O)c1ccccc1)C(=O)N[C@@H](CCCN=C(N)N)C(=O)N[C@H](C=O)CCCN=C(N)N` (Bz-FKRR-aldehyde): the affinity corresponds to a Ki of 6.8 µM.

With `CCCC[C@H](NC(=O)c1ccccc1)C(=O)N[C@@H](CCCCN)C(=O)N[C@@H](CCCN=C(N)N)C(=O)N[C@H](C=O)Cc1ccccc1` (Bz-[Nle]KRF-aldehyde), the affinity, expressed as Ki, was 15.9 µM.

`CCCC[C@H](NC(=O)c1ccccc1)C(=O)N[C@@H](CCCCN)C(=O)N[C@@H](CCCN=C(N)N)C(=O)N[C@H](C=O)Cc1ccc(C#N)cc1` (Bz-[Nle]KR[Phe(4-CN)]-aldehyde): the affinity, expressed as Ki, was 18.6 µM.

`CCCC[C@H](NC(=O)c1ccccc1)C(=O)N[C@H](CCCCN)C(=O)N[C@@H](CCCN=C(N)N)C(=O)N[C@H](C=O)CCCN=C(N)N` (Bz-[Nle][dK]RR-aldehyde) gave an inhibition constant Ki of 28.6 µM.

The compound `CCCC[C@H](NC(=O)c1ccccc1)C(=O)N[C@@H](CCCCN)C(=O)N[C@@H](CCCN=C(N)N)C(=O)N[C@H](C=O)Cc1ccc(-c2ccccc2)cc1` (Bz-[Nle]KR[Bip]-aldehyde) showed a Ki of 11.6 µM.

Compound `CCCC[C@H](NC(=O)c1ccccc1)C(=O)N[C@@H](CCCCN)C(=O)N[C@@H](CCCN=C(N)N)C(=O)N[C@H](C=O)Cc1c[nH]c2ccccc12` (Bz-[Nle]KRW-aldehyde) showed an inhibitory constant (Ki) of 7.5 µM.

Regarding `CCCC[C@H](NC(=O)c1ccccc1)C(=O)N[C@@H](CCCCN)C(=O)N[C@@H](CCCN=C(N)N)C(=O)N[C@@H](C)C=O` (Bz-[Nle]KRA-aldehyde), the inhibition constant Ki was 193 µM.

As for `CCCC[C@H](NC(=O)c1ccccc1)C(=O)N[C@@H](CCCCN)C(=O)N[C@@H](CCCNC(=N)N)C(=O)N[C@H](C=O)Cc1ccc(NC(=N)N)cc1` (Bz-[Nle]KR[Phe(4-guanidino)]-aldehyde), the Ki came out at 2.8 µM.

`CCCC[C@H](NC(=O)c1ccccc1)C(=O)N[C@@H](CCCCN)C(=O)N[C@@H](CCCN=C(N)N)C(=O)N[C@H](C=O)c1ccccc1` (Bz-[Nle]KR[Phg]-aldehyde) showed an inhibition constant Ki of 33 µM.

As to `CCCC[C@@H](C(=O)N[C@@H](CCCCN)C(=O)N[C@@H](CCCN=C(N)N)C(=O)N[C@H](C=O)CCCN=C(N)N)N(C)C(=O)c1ccccc1` (Bz-[NMeNle]KRR-aldehyde), the inhibitory constant (Ki) came out at 43.7 µM. This Ki and that of the compound before are within 1.5-fold of each other.

`CCCC[C@H](NC(=O)c1ccccc1)C(=O)N[C@@H](CCCCN)C(=O)N[C@@H](CCCN=C(N)N)C(=O)N[C@H](C=O)Cc1ccc(Cl)cc1` (Bz-[Nle]KR[Phe(4-Cl)]-aldehyde) returned an inhibition constant (Ki) of 138 µM. This Ki is about 3.2-fold higher than that of the compound before.

Compound `CCCC[C@H](NC(=O)c1ccccc1)C(=O)N[C@@H](Cc1ccccc1)C(=O)N[C@@H](CCCN=C(N)N)C(=O)N[C@H](C=O)CCCN=C(N)N` (Bz-[Nle]FRR-aldehyde) returned a Ki of 15.8 µM.

Take `CCCC[C@H](NC(=O)c1ccccc1)C(=O)N[C@@H](CCCCN)C(=O)N[C@@H](CCCN=C(N)N)C(=O)N[C@H](C=O)CCCCN` (Bz-[Nle]KRK-aldehyde): the inhibitory constant (Ki) was found to be 20.5 µM.

For the compound `CCCC[C@H](NC(=O)c1ccccc1)C(=O)N[C@@H](CCCCN)C(=O)N[C@H](CCCN=C(N)N)C(=O)N[C@H](C=O)CCCN=C(N)N` (Bz-[Nle]K[dR]R-aldehyde), the affinity corresponds to a Ki of 115 µM. Compared with the last compound, the Ki is about 5.6-fold higher.

In turn, `CCCC[C@H](NC(=O)c1ccccc1)C(=O)N[C@@H](CCCCN)C(=O)N[C@@H](C)C(=O)N[C@H](C=O)CCCN=C(N)N` (Bz-[Nle]KAR-aldehyde) gave an inhibition constant Ki of more than 500 µM.

The compound `CCCC[C@H](NC(=O)c1ccccc1)C(=O)N[C@@H](CCCCN)C(=O)N[C@@H](Cc1ccccc1)C(=O)N[C@H](C=O)CCCNC(=N)N` (Bz-[Nle]KFR-aldehyde) came in with an inhibition constant (Ki) of 40.7 µM. That is a double-digit micromolar value.

With `CCCC[C@@H](NC(=O)c1ccccc1)C(=O)N[C@@H](CCCCN)C(=O)N[C@@H](CCCN=C(N)N)C(=O)N[C@H](C=O)CCCN=C(N)N` (Bz-[dNle]KRR-aldehyde), the Ki came to 9.4 µM.

`CCCC[C@H](NC(=O)c1ccccc1)C(=O)N[C@@H](CCCCN)C(=O)N[C@@H](CCCN=C(N)N)C(=O)N[C@H](C=O)Cc1ccc(C)cc1` (Bz-[Nle]KR[Phe(4-Me)]-aldehyde) gave an inhibition constant Ki of 6 µM. Compared with the last compound, the Ki is about 1.6-fold lower.

`NC(N)=NCCC[C@@H](C=O)NC(=O)[C@H](CCCN=C(N)N)NC(=O)c1ccccc1` (Bz-Arg-Arg-aldehyde) had a Ki of 12 µM.

Turning to `C[C@H](NC(=O)c1ccccc1)C(=O)N[C@@H](CCCCN)C(=O)N[C@@H](CCCN=C(N)N)C(=O)N[C@H](C=O)CCCN=C(N)N` (Bz-AKRR-aldehyde), the inhibition constant (Ki) was found to be 5.3 µM.

In the case of `CCCC[C@H](NC(=O)c1ccccc1)C(=O)N(C)[C@@H](CCCCN)C(=O)N[C@@H](CCCN=C(N)N)C(=O)N[C@H](C=O)CCCN=C(N)N` (Bz-[Nle][NMeK]RR-aldehyde), the affinity corresponds to a Ki of 113 µM.

With `CCCC[C@H](NC(=O)c1ccccc1)C(=O)N[C@@H](CCCCN)C(=O)N[C@@H](CCCNC(=N)N)C(=O)N[C@H](C=O)CCCNC(=N)N` (Bz-[Nle]KRR-aldehyde), the Ki was determined as 5.8 µM.

Consider `CCCC[C@H](NC(=O)c1ccccc1)C(=O)N[C@@H](CCCCN)C(=O)N[C@@H](CCCN=C(N)N)C(=O)N[C@@H](C=O)CCCN=C(N)N` (Bz-[Nle]KR[dR]-aldehyde), for which the inhibition constant Ki came to 51 µM.

The compound `CCCC[C@H](NC(=O)c1ccccc1)C(=O)N1CCC[C@H]1C(=O)N[C@@H](CCCN=C(N)N)C(=O)N[C@H](C=O)CCCN=C(N)N` (Bz-[Nle]PRR-aldehyde) gave an inhibition constant (Ki) of 61.4 µM.

The compound `CCCC[C@H](NC(=O)c1ccccc1)C(=O)N[C@@H](CCCCN)C(=O)N[C@@H](CCCCN)C(=O)N[C@H](C=O)CCCNC(=N)N` (Bz-[Nle]KKR-aldehyde) had a Ki of 41.3 µM.

On to `CCCC[C@H](NC(=O)c1ccccc1)C(=O)N[C@@H](CCCCN)C(=O)N1CCC[C@H]1C(=O)N[C@H](C=O)CCCN=C(N)N` (Bz-[Nle]KPR-aldehyde), for which the affinity corresponds to a Ki of 109 µM.

As for `NCCCC[C@H](NC(=O)c1ccccc1)C(=O)N[C@@H](CCCN=C(N)N)C(=O)N[C@H](C=O)CCCN=C(N)N` (Bz-Lys-Arg-Arg-aldehyde), the inhibitory constant (Ki) amounted to 1.5 µM.

Turning to `CCCC[C@H](NC(=O)c1ccccc1)C(=O)N[C@@H](CCCCN)C(=O)N(C)[C@@H](CCCN=C(N)N)C(=O)N[C@H](C=O)CCCN=C(N)N` (Bz-[Nle]K[NMeR]R-aldehyde), the affinity, expressed as Ki, was 47.4 µM.

For the compound `CCCC[C@H](NC(=O)c1ccccc1)C(=O)N[C@@H](C)C(=O)N[C@@H](CCCN=C(N)N)C(=O)N[C@H](C=O)CCCN=C(N)N` (Bz-[Nle]ARR-aldehyde), the Ki came out at 22.1 µM.

In the case of `CCCC[C@H](NC(=O)c1ccccc1)C(=O)N[C@@H](CCCCN)C(=O)N[C@@H](CCCN=C(N)N)C(=O)N[C@H](C=O)CCc1ccccc1` (Bz-[Nle]KR[hPhe]-aldehyde), the Ki is more than 500 µM.

Values taken from ChEMBL document CHEMBL1147782, “Peptide inhibitors of dengue virus NS3 protease. Part 2: SAR study of tetrapeptide aldehyde inhibitors” (Bioorg Med Chem Lett, 2006).
